Measurements: PMC10489644, “In Vitro Evaluation of the Potential for Drug Interactions by Salidroside” (Nutrients, 2023)
Read-outs that look alike come from different tables or passages of the source.

Tests used:
CYP2B6 [1] = test: in vitro; details: CYP2B6 mRNA, 1000 µM, 48 h; for fold induction at 48 h, 1000 µM: human, Mean Fold Induction
Procedure: (§1) The sandwich medium was removed, and the hepatocytes were treated with incubation solutions containing salidroside (1, 5, 10, and 30 µM), vehicle (0.1% DMSO), or positive inducers in triplicate for 24 h after the cultures were established. The incubation solution was aspirated and replaced with incubation solution containing the same concentrations of salidroside, vehicle, or positive inducers for an additional 24 h. The total treatment period was 48 h. After the treatment period of 48 h, the incubation solution was aspirated. Hepatocytes were washed twice with pre-warmed HBSS containing 10 mM HEPES (HBSS I) and then the remaining solution was aspirated. Hepatocytes were washed once with pre-warmed HBSS I and incubated with 140 μL of RLT (lysis buffer from RNeasy 96 Kit) supplemented with 1% β-mercaptoethanol. Plates were then stored at −70 °C in a freezer until RNA analysis. Before RNA extraction, the frozen plate was thawed, and cell lysates were transferred to 96-well plates. RNA isolation was performed using a QIAcube RNA extraction system. Reverse transcription was performed to obtain cDNA. Quantification of the selective genes by real-time quantitative polymerase chain reaction (qPCR) was performed with TaqMan universal PCR Master Mix on the Bio-rad CFX384 TouchTM Real-Time PCR System. The relative change in the mRNA level of the selected target genes induced by each test compound was expressed in relation to the vehicle control sample, and fold changes in gene expression were determined by the ΔΔCt method.

CYP2B6 [2] = test: CYP induction by enzyme activity in cryopreserved human hepatocytes (Lot# SNP)
Procedure: as §1
(§2) Enzyme activity (%) = PAR with compound/PAR vehicle × 100.

OATP1B3 = biological target: T1, OATP1B3 (Homo sapiens, UniProt Q9NPD5); test: in vitro; details: human
T1 sequence (Q9NPD5 1-702): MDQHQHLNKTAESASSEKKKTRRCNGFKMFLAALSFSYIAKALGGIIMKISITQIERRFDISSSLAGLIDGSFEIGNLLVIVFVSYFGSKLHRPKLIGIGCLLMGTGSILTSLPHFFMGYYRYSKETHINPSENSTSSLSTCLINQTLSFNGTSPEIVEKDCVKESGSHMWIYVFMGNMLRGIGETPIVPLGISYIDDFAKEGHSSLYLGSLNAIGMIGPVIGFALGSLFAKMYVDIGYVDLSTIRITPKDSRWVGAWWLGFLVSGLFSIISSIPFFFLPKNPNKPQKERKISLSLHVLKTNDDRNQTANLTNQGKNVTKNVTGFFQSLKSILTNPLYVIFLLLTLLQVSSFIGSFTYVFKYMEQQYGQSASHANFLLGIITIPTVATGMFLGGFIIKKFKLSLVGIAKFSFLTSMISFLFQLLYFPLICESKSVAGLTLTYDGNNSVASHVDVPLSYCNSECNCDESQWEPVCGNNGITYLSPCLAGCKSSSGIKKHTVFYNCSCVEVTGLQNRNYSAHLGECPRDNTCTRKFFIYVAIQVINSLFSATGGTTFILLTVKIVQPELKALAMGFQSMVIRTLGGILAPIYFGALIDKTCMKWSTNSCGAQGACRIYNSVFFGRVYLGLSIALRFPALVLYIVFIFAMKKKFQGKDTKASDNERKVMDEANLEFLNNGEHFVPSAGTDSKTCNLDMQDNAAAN
Procedure: HEK293-OATP1B1 and OATP1B3 cells were diluted to 1 × 10^6 cells/mL with DMEM supplemented with 1% non-essential amino acid (NEAA), 10% fetal bovine serum (FBS), 1% PS solution (100 U/mL penicillin-G and 100 μg/mL streptomycin), and seeded on a 96-well BioCoat™ poly-d-lysine plate at a density of 1 × 10^6 cells/mL. […] Once the cells were anchored on the plate, the cell culture was replaced with DMEM containing 10% FBS and 1% PS solution (100 U/mL penicillin-G and 100 μg/mL streptomycin solution) and cultured one day for the uptake and inhibition studies. The cell culture medium was removed from the 96-well plate, then rinsed twice with 0.1 mL/well of pre-warmed transport buffer. The transporter cells containing pre-incubation solution were pre-incubated at 37 °C for 30 min. Then the pre-incubation solution was removed and replaced with 0.1 mL/well of dosing solution containing a substrate, respectively (blank transporter buffer containing a substrate, transport buffer containing a substrate and PC, and transport buffer containing a substrate and salidroside). Then, the transporter cells were incubated at 37 °C for 2 min. After incubation, all solutions in the cells were discarded and rinsed with 0.10 mL/well of ice-cold transport buffer (4 °C) three times. […] All samples were shaken and centrifuged at 4000 rpm at 4 °C for 15 min and the supernatant was removed for future analysis by LC-MS/MS.
as §2

MAO-B = test system: MAO-B; parameters: method as in PMID 19168123; details: isolated compound at 10 µM; cited from earlier work
CYP3A4/5 = test: CYP direct inhibition in human liver microsomes; details: pooled human liver microsomes
CYP1A2 [3] = test: in vitro
Procedure: as §1, §2

CYP1A2 [4] = test: in vitro; details: CYP1A2 mRNA, 50 μM, 48 h; for fold induction at 48 h, 50 µM: human, cryopreserved human hepatocytes (sandwich culture), Mean Fold Induction
Procedure: as §1, with “The” for “The sandwich medium was removed, and the hepatocytes were treated with incubation solutions containing salidroside (1, 5, 10, and 30 µM), vehicle (0.1% DMSO), or positive inducers in triplicate for 24 h after the cultures were established. The”

recombinant human MAO-B = biological target: T2, recombinant human MAO-B (Homo sapiens, UniProt P27338); test: MAO inhibition, kynuramine oxidation to 4-hydroxyquinoline; format: biochemical; details: substrate kynuramine (20 µM); mean of N = 2
T2 construct: purchased Corning
T2 sequence (P27338 1-520): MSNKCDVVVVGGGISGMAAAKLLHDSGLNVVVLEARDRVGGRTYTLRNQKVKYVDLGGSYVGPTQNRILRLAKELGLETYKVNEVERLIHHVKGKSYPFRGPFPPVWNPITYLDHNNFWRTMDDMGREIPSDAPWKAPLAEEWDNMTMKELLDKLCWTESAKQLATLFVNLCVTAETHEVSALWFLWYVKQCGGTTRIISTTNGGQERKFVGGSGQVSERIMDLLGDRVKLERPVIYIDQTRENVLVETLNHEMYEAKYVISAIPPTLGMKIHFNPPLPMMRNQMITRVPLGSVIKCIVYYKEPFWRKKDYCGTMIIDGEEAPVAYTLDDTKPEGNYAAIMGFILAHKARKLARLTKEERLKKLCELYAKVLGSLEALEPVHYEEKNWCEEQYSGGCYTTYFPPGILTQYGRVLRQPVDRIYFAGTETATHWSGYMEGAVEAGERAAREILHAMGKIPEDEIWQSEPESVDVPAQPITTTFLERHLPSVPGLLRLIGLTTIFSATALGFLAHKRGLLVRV
Procedure: (§3) A total of 99 µL of substrate working solution was added into 1.1 mL incubation tubes and then 1 µL of the test compound/control working solution or DMSO (vehicle control) was added, mixed well, and pre-incubated at 37 °C for 5 min. MAO-A (0.005 mg/mL) and MAO-B (0.02 mg/mL) were pre-incubated in the working solution at 37 °C for 5 min. A total of 100 µL of pre-incubated MAO-A or MAO-B working solution was added to incubation tubes to start the reaction, mixed well, and incubated at 37 °C for 15 min. […] All samples were centrifuged at 4000 rpm at 4 °C for 15 min, then 100 µL supernatant with 100 µL of water was transferred for LC-MS/MS analysis.
as §2
(§4) The oxidation of kynuramine to 4-hydroxyquinoline generated was the in vitro marker reaction of MAO-A and MAO-B enzymes.

recombinant human MAO-A = biological target: T3, recombinant human MAO-A (Homo sapiens, UniProt P21397); test: as above; format: biochemical; details: substrate kynuramine (20 µM); mean of N = 2; read-out: IC50 MAO-A
T3 sequence (P21397 1-527): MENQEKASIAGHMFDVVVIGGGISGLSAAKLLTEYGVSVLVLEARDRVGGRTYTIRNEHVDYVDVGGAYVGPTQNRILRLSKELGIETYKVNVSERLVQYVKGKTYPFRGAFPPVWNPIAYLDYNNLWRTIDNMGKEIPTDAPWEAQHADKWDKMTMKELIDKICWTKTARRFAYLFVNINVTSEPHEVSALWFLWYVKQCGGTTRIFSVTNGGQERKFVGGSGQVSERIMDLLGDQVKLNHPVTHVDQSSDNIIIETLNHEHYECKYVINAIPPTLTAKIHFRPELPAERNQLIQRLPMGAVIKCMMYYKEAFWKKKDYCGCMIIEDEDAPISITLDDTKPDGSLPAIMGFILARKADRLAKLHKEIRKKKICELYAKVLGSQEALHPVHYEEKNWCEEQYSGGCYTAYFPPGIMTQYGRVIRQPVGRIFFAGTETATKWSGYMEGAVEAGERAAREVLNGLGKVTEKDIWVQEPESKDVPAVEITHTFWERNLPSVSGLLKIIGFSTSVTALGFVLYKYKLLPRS
Procedure: as §3, §2, §4

In the case of `CCC1(c2ccccc2)C(=O)NC(=O)NC1=O` [PB, phenobarbital, reference compound], the “% Positive Control” value (CYP2B6 [1]; Lot# 1911442) is reported as 100%, the “% Positive Control” value (CYP2B6 [1]; Lot# MWB) is reported as 100% and the “% Positive Control” value (CYP2B6 [1]; Lot# RFM) is reported as 100%. It also gave a fold induction at 48 h, 1000 µM (CYP2B6 [1]; Lot# 1911442) of 13.6, a fold induction at 48 h, 1000 µM (CYP2B6 [1]; Lot# MWB) of 14.7 and a fold induction at 48 h, 1000 µM (CYP2B6 [1]; Lot# RFM) of 8.81. For the same compound, the “% of Positive Control” value (CYP2B6 [2]; CYP2B6 activity, Lot# SNP, 1000 µM) was 100% and the fold induction at 48 h, 1000 µM (CYP2B6 [2]; human) was 5.69.
With `CO[C@H]1/C=C/O[C@@]2(C)Oc3c(C)c(O)c4c(O)c(c(/C=N/N5CCN(C)CC5)c(O)c4c3C2=O)NC(=O)/C(C)=C\C=C\[C@H](C)[C@H](O)[C@@H](C)[C@@H](O)[C@@H](C)[C@H](OC(C)=O)[C@@H]1C` [RIF, rifampicin, reference compound] the IC50 at 2 min (OATP1B3) was 1540 nM.
For `CC(C)=CC[C@H](O)/C(C)=C/CO[C@@H]1O[C@H](CO)[C@@H](O)[C@H](O)[C@H]1O` [rosirdin, reference compound], the “inhibition of MAO-B” value (MAO-B) is given as 83.8%.
With `CC(=O)N1CCN(c2ccc(OCC3COC(Cn4ccnc4)(c4ccc(Cl)cc4Cl)O3)cc2)CC1` (stereo not shown) [Ketoconazole, ketoconazole] the IC50 at 10 min (CYP3A4/5; probe midazolam) was 27 nM and the IC50 at 10 min (CYP3A4/5; probe testosterone) was 18.3 nM.
For `COc1ccc2[nH]c([S+]([O-])Cc3ncc(C)c(OC)c3C)nc2c1` (stereo not shown) [OME, omeprazole, reference compound], the fold induction at 48 h, 50 µM (CYP1A2 [3]) was 3.55, the “% of Positive Control” value (CYP1A2 [3]; CYP1A2 activity, Lot# SNP, 50 µM) was 100% and the “% Positive Control” value (CYP1A2 [4]; Lot# 1911442) was 100%. For the same compound, the “% Positive Control” value (CYP1A2 [4]; Lot# MWB) was 100%, the “% Positive Control” value (CYP1A2 [4]; Lot# RFM) was 100% and the fold induction at 48 h, 50 µM (CYP1A2 [4]; Lot# 1911442) was 10. The fold induction at 48 h, 50 µM (CYP1A2 [4]; Lot# MWB) was 24 and the fold induction at 48 h, 50 µM (CYP1A2 [4]; Lot# RFM) was 19.
With `Cc1oncc1C(=O)Nc1ccc(C(F)(F)F)cc1` [leflunomide, reference compound] the IC50 (recombinant human MAO-B) was 7400 nM and the IC50 (recombinant human MAO-A) was 13800 nM.
